From US6838414B2, “Substituted aryl sulphonyl(thio)ureas used as herbicides” (Bayer Aktiengesellschaft, priority 1996, dated 2005)

Legend:
[1] = system: Sorghum; experiment: Pre-emergence test/greenhouse; type: in vivo; settings: after three weeks
Experimental: (§1) To produce a suitable preparation of active compound, 1 part by weight of active compound is mixed with the stated amount of solvent, the stated amount of emulsifier is added and the concentrate is diluted with water to the desired concentration.
(§2) Seeds of the test plants are sown in normal soil. After about 24 hours, the soil is sprayed with the preparation of the active compound. Advantageously, the amount of water per unit area is kept constant. The active compound concentration in the preparation is not important, only the active compound application rate per unit area is critical.
(§3) After three weeks, the degree of damage to the plants is rated in % damage in comparison with the development of the untreated control.
(§4) The figures denote: • 0%=no effect (like untreated control) • 100%=total destruction

[2] = system: Alopecurus; experiment: Pre-emergence test/greenhouse; type: in vivo; settings: after three weeks
Experimental: as §1, §2, §3, §4

[3] = system: Lolium; experiment: Pre-emergence test/greenhouse; type: in vivo; settings: after three weeks
Experimental: as §1, §2, §3, §4

[4] = system: Stellaria; experiment: Pre-emergence test/greenhouse; type: in vivo; settings: after three weeks
Experimental: as §1, §2, §3, §4

[5] = system: Chenopodium; experiment: Pre-emergence test/greenhouse; type: in vivo; settings: after three weeks
Experimental: as §1, §2, §3, §4

[6] = system: Amaranthus; experiment: Pre-emergence test/greenhouse; type: in vivo; settings: after three weeks
Experimental: as §1, §2, §3, §4

[7] = system: weeds; experiment: Pre-emergence test (overall statement); type: in vivo; settings: application rates between 30 g and 125 g of a.i. per hectare
Experimental: as §1, §2, §3, §4

[8] = system: Alopecurus; experiment: Post-emergence test/greenhouse; type: in vivo; settings: rated after three weeks vs untreated control
Experimental: as §1
(§5) Test plants which have a height of 5-15 cm are sprayed with the preparation of the active compound in such a way as to apply the particular amounts of active compound desired per unit area. The concentration of the spray liquor is chosen so that the amounts of active compound desired in each case are applied in 1000 l of water/ha.
as §3, §4

[9] = system: Echinochloa; experiment: Post-emergence test/greenhouse; type: in vivo; settings: rated after three weeks vs untreated control
Experimental: as §1, §5, §3, §4

[10] = system: weeds; experiment: Post-emergence test/greenhouse; type: in vivo
Experimental: as §1, §5, §3, §4

[11] = system: Matricaria; experiment: Post-emergence test/greenhouse; type: in vivo; settings: rated after three weeks vs untreated control
Experimental: as §1, §5, §3, §4

[12] = system: Abutilon; experiment: Post-emergence test/greenhouse; type: in vivo; settings: rated after three weeks vs untreated control
Experimental: as §1, §5, §3, §4

[13] = application rate 30 g of ai./ha
[14] = application rate 60 g of ai./ha

melting point	Compound	Sorghum, % damage ([1]; 60 g of ai./ha)	Alopecurus, % damage ([2]; 60 g of ai./ha)	Lolium, % damage ([3]; 60 g of ai./ha)	Steltaria, % damage ([4]; 60 g of ai./ha)	Chenopodium, % damage ([5]; 60 g of ai./ha)	Amaranthus, % damage ([6]; 60 g of ai./ha)	activity against weeds [7]	Sorghum, % damage ([1]; 30 g of ai./ha)	Alopecurus, % damage ([2]; 30 g of ai./ha)	Lolium, % damage ([3]; 30 g of ai./ha)	Steltaria, % damage ([4]; 30 g of ai./ha)	Chenopodium, % damage ([5]; 30 g of ai./ha)	Amaranthus, % damage ([6]; 30 g of ai./ha)	degree of damage to the plants, Alopecurus [8, 13]	degree of damage to the plants, Echinochloa [9, 13]	activity against weeds [10]	degree of damage to the plants, Matricaria [11, 13]	degree of damage to the plants, Abutilon [12, 13]	degree of damage to the plants, Alopecurus [8, 14]	also measured
190 °C	COc1cccc(C(F)(F)F)c1S(=O)(=O)NC(=O)Nc1nc(C)cc(C)n1 [Example 1, N-(4,6-dimethyl-pyrimidin-2-yl)-N′-(2-methoxy-6-trifluoromethyl-phenylsulphonyl)-urea]	100%	100%	100%	100%	100%	100%	very strong activity against weeds													
163 °C	COc1nc(NC(=O)NS(=O)(=O)c2c(C)cccc2OC)nc(OC)n1 [Example 2, N-(4,6-dimethoxy-1,3,5-triazin-2-yl)-N′-(2-methoxy-6-methyl-phenylsulphonyl)-urea]							very strong activity against weeds	100%	100%	100%	100%	100%	100%	90%	90%	very strong activity against weeds	100%	95%		
184 °C	CCOc1cccc(C)c1S(=O)(=O)NC(=O)Nc1nc(OC)cc(OC)n1 [Example 3, N-(4,6-dimethoxy-pyrimidin-2-yl)-N′-(2-ethoxy-6-methyl-phenylsulphonyl)-urea]	80%	95%	60%	95%	95%	80%	very strong activity against weeds									very strong activity against weeds			90%	degree of damage to the plants, Echinochloa [9, 14]: 80%; degree of damage to the plants, Matricaria [11, 14]: 95%; degree of damage to the plants, Abutilon [12, 14]: 100%
	COc1cc(OC)nc(NC(=O)NS(=O)(=O)c2c(C)cccc2OC)n1 [Example 44]							very strong activity against weeds	100%	100%	100%	100%	100%	100%	60%	90%	very strong activity against weeds	100%	100%		
	CCCOc1cccc(C)c1S(=O)(=O)NC(=O)Nc1nc(OC)nc(OC)n1 [Example 48]	100%	100%	100%	100%	100%	100%	very strong activity against weeds									very strong activity against weeds			95%	degree of damage to the plants, Echinochloa [9, 14]: 70%; degree of damage to the plants, Matricaria [11, 14]: 90%; degree of damage to the plants, Abutilon [12, 14]: 100%
	CCCOc1cccc(C)c1S(=O)(=O)NC(=O)Nc1nc(C)nc(OC)n1 [Example 49]							very strong activity against weeds	100%	100%	100%	100%	100%	100%	90%	80%	very strong activity against weeds	100%	100%		
	COc1nc(C)nc(NC(=O)NS(=O)(=O)c2c(C)cccc2OC(F)F)n1 [Example 66]	95%	95%	95%	95%	95%	95%	very strong activity against weeds									very strong activity against weeds			80%	degree of damage to the plants, Echinochloa [9, 14]: 80%; degree of damage to the plants, Matricaria [11, 14]: 100%; degree of damage to the plants, Abutilon [12, 14]: 100%
